Measured values from patent publication US12214039B2, “Systems and methods for treatments of an eye with a photosensitizer” (Avedro, Inc., priority 2015, dated 2025).
Entries after “also recorded” stand apart in the source; their conditions may differ.

Experiments:
[1] = single surfactant; cited from earlier work
[2] = test system: pig eyes with intact epithelium; test: Relative fluorescence (F/Fo) of cross-linked corneal flaps, surfactants in riboflavin solution (Study 4)
Experimental: Pig eyes shipped overnight on ice from an abattoir (SiouxPreme, Sioux City, IA) were rinsed in saline. The eyes with intact epithelium were soaked with one of the test solutions below for 20 minutes in an incubator set at 37° C. by using a rubber ring to hold the solution on top.
For a Group A of the pig eyes, the following riboflavin formulations were used: • (a1) 0.25% riboflavin solution containing BAC (PARACEL™, Avedro, Inc., Waltham, MA); • (a2) 0.1% w.v. riboflavin solution containing saline (PHOTREXA ZD™ Avedro, Inc., Waltham, MA) with added riboflavin to match the riboflavin content (0.25%) in solution (a1); • (a3) solution (a2) with 1% Polidocanol; • (a4) solution (a2) with 5% Polidocanol; and • (a5) solution (a2) with 10% Polidocanol.
The epitheliums of eyes in Group A were removed with a dull blade after the eyes were soaked in one of the solutions and irradiated pan-corneally on air with a top hat beam (3% root mean square) for 4 minutes with 365-nm light source (UV LED NCSU033B[T]; Nichia Co., Tokushima, Japan) at a chosen irradiance of 30 mW/cm^2 which was measured with a power sensor (model PD-300-UV; Ophir, Inc., Jerusalem, Israel) at the corneal surface. Corneal flaps (approximately 200 μm thick) were excised from the eyes with aid of an Intralase femtosecond laser (Abbot Medical Optics, Santa Ana, CA). The average thickness of the corneal flaps was calculated as a difference between the measurements before and after the excision from the eyes with an ultrasonic Pachymeter (DGH Technology, Exton, PA). The flaps were washed with distilled water and dried in a vacuum until the weight change became less than 10% (Rotary vane vacuum pump RV3 A652-01-903, BOC Edwards, West Sussex, UK). […] Papain digests were diluted 0.5 times with 1×BBBS and fluorescence of the solutions was measured with excitation of 360 nm in a QM-40 Spectrofluorometer (Photon Technology Int., London, Ontario, Canada). The fluorescence of the papain buffer was taken into account by measuring fluorescence in the absence of tissue and subtracting this value from the fluorescence of the samples. […]

[3] = in riboflavin solution, pig eyes

CCCCCCCCCc1ccc(OCCOCCOCCOCCOCCOCCOCCOCCOCCO)cc1 [IGEPAL CO-630]
HLB number [1]: 13

Polyoxyethylene (9) lauryl ether [Polidocanol]
corrosion and damage to the epithelium ([2]; corneal epithelium): do not cause damage to the epithelium; also recorded: less corrosive and damaging to the epithelium than BAC
enhancing permeability and generating cross-linking activity, compared with other surfactants [2, 3]: more effective than many other surfactants
enhancing permeability in the epithelium and generating cross-linking activity, compared with BAC [2, 3]: far more effective and efficient than BAC
